Literature values, collected in patent US20230270851A1, “METHODS FOR THE TREATMENT OF IDIOPATHIC ORBITAL INFLAMMATION AND RELATED CONDITIONS” (HORIZON THERAPEUTICS IRELAND DAC, priority 2020, published 2023).

Experiments:
ALK = ALK (Homo sapiens, UniProt Q9UM73); conditions: cited from earlier work
IGF-1R = IGF-1R (Homo sapiens, UniProt P08069); conditions: A-928605: purified enzyme; INSM-18: receptor activation; cited from earlier work
neuroblastoma = conditions: cited from earlier work
tumors = conditions: in vivo; cited from earlier work
[1] = cited from earlier work
IGF-IR = IGF-IR (Homo sapiens, UniProt P08069); conditions: cited from earlier work
[2] = tested on: susceptible tumor cell populations; conditions: cited from earlier work
[3] = target: c-erbB2/HER2/neu receptor (Homo sapiens, UniProt P04626); conditions: cited from earlier work
[4] = tested on: IGF-1 R-overexpressing tumor cells; conditions: cited from earlier work

Sequence of IGF-1R (P08069 31-1367): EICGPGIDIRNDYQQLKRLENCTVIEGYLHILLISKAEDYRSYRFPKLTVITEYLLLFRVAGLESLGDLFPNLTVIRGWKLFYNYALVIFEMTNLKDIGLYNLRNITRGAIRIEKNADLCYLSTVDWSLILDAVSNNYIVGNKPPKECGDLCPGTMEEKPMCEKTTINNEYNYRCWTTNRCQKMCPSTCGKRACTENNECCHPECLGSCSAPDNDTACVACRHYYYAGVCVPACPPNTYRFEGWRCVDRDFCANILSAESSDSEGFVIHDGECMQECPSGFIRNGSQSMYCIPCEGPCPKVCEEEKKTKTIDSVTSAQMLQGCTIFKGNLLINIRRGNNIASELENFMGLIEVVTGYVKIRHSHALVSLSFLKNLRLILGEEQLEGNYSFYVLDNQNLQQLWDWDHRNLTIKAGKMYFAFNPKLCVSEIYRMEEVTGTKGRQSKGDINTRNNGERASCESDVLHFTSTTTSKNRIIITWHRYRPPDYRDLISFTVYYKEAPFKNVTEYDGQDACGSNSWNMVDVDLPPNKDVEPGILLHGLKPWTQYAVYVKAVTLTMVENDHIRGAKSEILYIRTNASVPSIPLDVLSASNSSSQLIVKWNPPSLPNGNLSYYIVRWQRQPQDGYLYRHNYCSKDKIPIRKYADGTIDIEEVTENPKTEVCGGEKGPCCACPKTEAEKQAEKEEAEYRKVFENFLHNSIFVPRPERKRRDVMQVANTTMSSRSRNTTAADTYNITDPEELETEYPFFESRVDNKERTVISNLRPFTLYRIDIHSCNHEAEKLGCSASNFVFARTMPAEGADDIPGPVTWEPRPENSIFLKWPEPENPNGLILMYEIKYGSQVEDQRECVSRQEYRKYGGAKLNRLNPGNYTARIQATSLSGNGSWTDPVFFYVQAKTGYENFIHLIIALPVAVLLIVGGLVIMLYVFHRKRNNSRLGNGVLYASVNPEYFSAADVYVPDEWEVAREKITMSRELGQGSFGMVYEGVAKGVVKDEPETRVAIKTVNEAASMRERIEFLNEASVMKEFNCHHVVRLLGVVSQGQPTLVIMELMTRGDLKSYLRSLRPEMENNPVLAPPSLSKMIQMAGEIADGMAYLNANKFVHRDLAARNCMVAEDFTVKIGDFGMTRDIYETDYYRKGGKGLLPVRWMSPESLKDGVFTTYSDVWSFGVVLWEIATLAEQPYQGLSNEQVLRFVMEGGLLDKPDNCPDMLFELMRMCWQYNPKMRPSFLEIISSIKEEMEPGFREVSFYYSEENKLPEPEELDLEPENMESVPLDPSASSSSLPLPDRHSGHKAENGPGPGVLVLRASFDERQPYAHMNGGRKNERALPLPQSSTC
Sequence of ALK (Q9UM73 19-1620, species assumed): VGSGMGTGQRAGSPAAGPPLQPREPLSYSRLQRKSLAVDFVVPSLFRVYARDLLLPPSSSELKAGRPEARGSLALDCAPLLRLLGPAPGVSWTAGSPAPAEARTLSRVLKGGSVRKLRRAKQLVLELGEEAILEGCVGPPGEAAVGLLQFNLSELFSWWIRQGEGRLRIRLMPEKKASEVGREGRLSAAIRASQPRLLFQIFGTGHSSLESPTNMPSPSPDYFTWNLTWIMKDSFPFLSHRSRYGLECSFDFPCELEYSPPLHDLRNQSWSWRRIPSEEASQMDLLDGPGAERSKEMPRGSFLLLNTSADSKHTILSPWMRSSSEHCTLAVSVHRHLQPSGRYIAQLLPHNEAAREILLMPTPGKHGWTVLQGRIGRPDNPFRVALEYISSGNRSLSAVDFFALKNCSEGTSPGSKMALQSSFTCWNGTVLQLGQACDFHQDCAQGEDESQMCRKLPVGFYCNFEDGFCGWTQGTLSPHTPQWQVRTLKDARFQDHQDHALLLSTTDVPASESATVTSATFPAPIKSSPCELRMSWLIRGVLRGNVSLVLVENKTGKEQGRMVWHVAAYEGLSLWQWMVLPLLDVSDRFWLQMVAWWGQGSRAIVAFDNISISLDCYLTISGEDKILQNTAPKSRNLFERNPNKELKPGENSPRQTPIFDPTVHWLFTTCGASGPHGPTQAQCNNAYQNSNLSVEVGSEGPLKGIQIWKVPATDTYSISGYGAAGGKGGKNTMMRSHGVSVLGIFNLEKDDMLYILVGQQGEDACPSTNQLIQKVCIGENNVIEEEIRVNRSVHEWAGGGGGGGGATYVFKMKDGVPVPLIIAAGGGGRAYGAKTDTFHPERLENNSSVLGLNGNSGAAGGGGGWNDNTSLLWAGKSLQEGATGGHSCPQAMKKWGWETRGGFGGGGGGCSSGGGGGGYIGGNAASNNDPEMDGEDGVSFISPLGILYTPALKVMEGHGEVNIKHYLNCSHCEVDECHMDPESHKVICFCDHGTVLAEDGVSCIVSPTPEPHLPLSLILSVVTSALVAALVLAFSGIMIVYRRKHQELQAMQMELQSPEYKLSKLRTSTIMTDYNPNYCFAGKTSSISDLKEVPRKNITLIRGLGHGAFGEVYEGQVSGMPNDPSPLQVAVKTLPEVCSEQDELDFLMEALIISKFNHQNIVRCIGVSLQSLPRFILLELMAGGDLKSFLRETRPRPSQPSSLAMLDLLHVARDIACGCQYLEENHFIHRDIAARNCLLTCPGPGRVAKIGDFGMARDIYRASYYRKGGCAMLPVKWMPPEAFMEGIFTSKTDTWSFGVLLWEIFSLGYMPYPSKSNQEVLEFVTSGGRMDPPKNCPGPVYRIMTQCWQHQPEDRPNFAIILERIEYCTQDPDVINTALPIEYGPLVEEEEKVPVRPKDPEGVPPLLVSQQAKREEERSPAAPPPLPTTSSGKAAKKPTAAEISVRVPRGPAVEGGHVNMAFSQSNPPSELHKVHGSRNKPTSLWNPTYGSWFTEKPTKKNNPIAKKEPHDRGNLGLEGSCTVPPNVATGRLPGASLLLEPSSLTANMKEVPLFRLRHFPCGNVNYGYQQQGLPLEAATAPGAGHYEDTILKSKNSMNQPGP
Sequence of c-erbB2/HER2/neu receptor (P04626 23-1255): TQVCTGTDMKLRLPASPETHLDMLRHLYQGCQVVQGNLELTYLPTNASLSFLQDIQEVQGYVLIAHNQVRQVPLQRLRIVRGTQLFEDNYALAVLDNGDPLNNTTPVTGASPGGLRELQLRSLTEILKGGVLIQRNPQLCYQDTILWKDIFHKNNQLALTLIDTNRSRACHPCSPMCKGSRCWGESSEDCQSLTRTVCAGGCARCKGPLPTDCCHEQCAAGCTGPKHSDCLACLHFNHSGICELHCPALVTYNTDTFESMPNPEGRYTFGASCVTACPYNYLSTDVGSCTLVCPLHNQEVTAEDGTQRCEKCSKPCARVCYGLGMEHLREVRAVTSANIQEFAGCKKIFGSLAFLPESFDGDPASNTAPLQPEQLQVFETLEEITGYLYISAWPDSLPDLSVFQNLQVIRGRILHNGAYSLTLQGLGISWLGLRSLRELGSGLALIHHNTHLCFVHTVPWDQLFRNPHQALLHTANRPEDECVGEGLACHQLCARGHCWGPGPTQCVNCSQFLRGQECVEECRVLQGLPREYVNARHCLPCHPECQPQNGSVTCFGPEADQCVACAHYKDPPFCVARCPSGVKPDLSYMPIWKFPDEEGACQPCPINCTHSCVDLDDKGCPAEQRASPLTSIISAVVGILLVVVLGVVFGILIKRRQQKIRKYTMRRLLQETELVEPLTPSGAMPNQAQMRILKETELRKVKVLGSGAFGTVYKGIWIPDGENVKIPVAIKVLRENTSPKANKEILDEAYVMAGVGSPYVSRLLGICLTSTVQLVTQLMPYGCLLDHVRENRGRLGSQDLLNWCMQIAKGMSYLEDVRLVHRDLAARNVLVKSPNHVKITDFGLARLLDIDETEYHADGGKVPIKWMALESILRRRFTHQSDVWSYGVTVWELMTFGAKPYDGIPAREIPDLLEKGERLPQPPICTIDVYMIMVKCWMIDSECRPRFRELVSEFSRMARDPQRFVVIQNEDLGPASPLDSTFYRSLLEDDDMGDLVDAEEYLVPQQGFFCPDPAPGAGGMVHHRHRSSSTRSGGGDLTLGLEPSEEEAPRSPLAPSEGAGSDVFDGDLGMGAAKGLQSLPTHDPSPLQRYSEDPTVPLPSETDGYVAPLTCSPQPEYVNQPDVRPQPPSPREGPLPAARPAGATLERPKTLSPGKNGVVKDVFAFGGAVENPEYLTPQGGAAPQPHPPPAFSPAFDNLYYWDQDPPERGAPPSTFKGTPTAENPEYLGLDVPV
Sequence of IGF-IR (P08069 31-1367): as the sequence (P08069 31-1367) above

COc1cc(N2CCC(N)CC2)ccc1Nc1ncc(Cl)c(-c2c[nH]c3ccccc23)n1 [AZD3463]
inhibition of ALK (ALK): potent
inhibition of IGF-1R (IGF-1R): potent
apoptosis (neuroblastoma; neuroblastoma): inducing apoptosis
neuroblastoma growth (neuroblastoma; overcoming crizotinib resistance): inhibition of neuroblastoma growth

COCCN1CCN(CCn2ccc(Nc3ncc4c(n3)[C@@H](C)Cc3nn(C)c(-c5ccccc5)c3-4)n2)CC1 [BI885578]
apoptosis in tumors (tumors): induction of apoptosis
cell proliferation in tumors (tumors): inhibition of cell proliferation
in vivo half-life [1]: short
intestinal absorption ([1]; in vivo): rapid
metabolic clearance ([1]; in vivo): rapid

Nc1ncnc2c1c(-c1ccc3[nH]c(Cc4ccccc4Cl)nc3c1)nn2[C@H]1CC[C@H](N2CCOCC2)CC1 [Example A-928605]
inhibition of intracellular IGF-IR phosphorylation (IGF-IR): potent inhibitor
inhibition of IGF-1R (IGF-1R): potent inhibitor

C[C@H](Cc1ccc(O)c(O)c1)[C@@H](C)Cc1ccc(O)c(O)c1 [INSM-18, nordihydroguaiaretic acid]
proliferation of susceptible tumor cell populations [2]: decreased proliferation
inhibition of IGF-1R (IGF-1R): directly inhibits activation
inhibition of activation of the c-erbB2/HER2/neu receptor [3]: directly inhibits activation

CCOC(=O)N1CCC(Nc2cc(Cl)cc3c(S(=O)(=O)N4CCO[C@H](COc5ccccc5)C4)c(C(N)=O)[nH]c23)CC1 [PL-225B]
tumor cell apoptosis [4]: induction of tumor cell apoptosis
tumor cell proliferation [4]: inhibition of tumor cell proliferation
inhibition of IGF-1R (IGF-1R): selectively inhibits
